Experiment: gradient 5% acetonitrile 3 min, to 50% in 2 min, to 85% in 15 min, held 3 min, 100 µL/min
Settings: column: Zorbax Extend-C18 2.1 x 50 mm; eluents: water / acetonitrile, 0.1% formic acid
Outline: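 Pure standards were analyzed in mixtures of ~100 molecules using HPLC coupled to a quadrupole time-of-flight mass spectrometer, in both positive and negative ionization mode. Separation used a Zorbax Extend-C18 column (2.1 × 50 mm, 1.8 μm) at 100 μL/min, with water and acetonitrile each containing 0.1% formic acid. Dead and dwell volumes were 40 μL and 900 μL, and data were collected over 3 months. Retention time was read from computationally picked adduct peaks, each inspected manually.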

Row | RP-LC retention time [s] | Structure (SMILES)
1 | 730 | CN1C(=O)CCc2cc(NC(=O)c3n[nH]c4ccccc34)ccc21
2 | 568 | CC(C)N(CC#CCNS(=O)(=O)c1ccc(Cl)cc1)C(C)C
3 | 798 | O=C(Nc1ccccc1)C1CCCN(c2ncnc3c2oc2ccccc23)C1 (centres undefined)
4 | 1200 | O=C(NCc1ccc(F)cc1F)c1c(O)c2cccnc2n(-c2ccccc2)c1=O
5 | 664 | Cc1ccc(NC(=O)CSc2ccc(N3CCCC(C(=O)NC4CC4)C3)nn2)cc1F (centres undefined)
6 | 981 | Cc1cc2nn(CC(=O)Nc3cccc(F)c3)c(=O)n2c(Nc2ccc(F)cc2)n1
7 | 887 | Cc1c(C(=O)NC2CCCC2)cnn1-c1cc(-c2nc(C3CC3)no2)ccn1
8 | 700 | Cc1ccccc1NS(=O)(=O)c1cc(-c2[nH]ncc2C(=O)N2CCCC2)oc1C
9 | 815 | CC(C)c1nnc(-c2ccc(S(=O)(=O)N3CCCC3)o2)o1
10 | 818 | CCN(C(=O)C1CCCN1S(=O)(=O)c1cc2c(cc1C)NC(=O)CO2)c1cccc(C)c1 (centres undefined)
11 | 548 | O=C(CSc1ccc(-c2cccnc2)nn1)NCC1CCCO1 (centres undefined)
12 | 1030 | Cc1ccc(Oc2nccn3c(=O)n(CC(=O)Nc4ccc(C(C)C)cc4)nc23)cc1
13 | 789 | Cc1cccc(Cn2cc(S(=O)(=O)N3CCOCC3)ccc2=O)c1
14 | 975 | CC(C)Cn1cc(CCNC(=O)Nc2ccc(Br)cc2F)c2cccnc21
15 | 984 | Cc1ccccc1Nc1c(-c2c(F)cccc2Cl)nc2ccc(Cl)cn12
16 | 703 | O=C(c1ccc(C(F)(F)F)s1)N1CCN(c2nc(CN3CCCCC3)cs2)CC1
17 | 1060 | CCn1nnc2ccc(-c3noc(-c4cccc(OC)c4)n3)cc21
18 | 873 | O=C(C1=CN(c2cc(F)cc(F)c2)c2ccccc2S1(=O)=O)N1CCCCC1
19 | 1090 | N#Cc1ccc(NS(=O)(=O)c2cccc(-c3nc(-c4ccccc4)no3)c2)cc1
20 | 837 | O=C(Nc1ccc(Cl)cc1)c1csc(-c2ccc(N3CCCC3)nc2)n1
21 | 811 | COCCOC1CCC12CCN(C(=O)c1cc(C)oc1C)CC2 (centres undefined)
22 | 679 | Cn1c(C2CCN(C(=O)c3ccc(Br)cc3)CC2)cc(=O)n2nccc12

Row | RP-LC retention time [s] | Structure (SMILES)
23 | 916 | O=C1c2ccccc2C(=O)N1CC(=O)N(Cc1ccccc1)c1cccc([N+](=O)[O-])c1
24 | 887 | CCCCNC(=O)C1CCN(S(C)(=O)=O)c2cc(Cl)ccc2O1 (centres undefined)
25 | 695 | Cc1ccc(C)c(-c2cc(C(N)=O)[nH]n2)c1
26 | 609 | CNC(=O)Cn1nc(C2CCN(C(=O)c3nccc4ccccc34)CC2)c2c1CCOC2
27 | 781 | O=C(Cn1ccn2nc(-c3ccccc3)c(CO)c2c1=O)Nc1ccc(F)cc1F
28 | 667 | O=C(NCC(F)(F)F)C1CN(C(=O)c2ccc(F)c(F)c2)C1
29 | 652 | Cc1cc(-c2ncc(CC(=O)Nc3ccc(-c4cnccn4)cn3)cc2C)ccn1
30 | 733 | O=C(c1cccs1)N1CCN(c2ccc(=O)n(-c3ccccc3)n2)CC1
31 | 788 | CCSc1nnc2c(n1)OC(c1cccn1C)N(C(C)=O)c1ccccc1-2 (centres undefined)
32 | 836 | CCOc1ccc(CNC(=O)c2c(C)sc3ccn(CC)c(=O)c23)cc1
33 | 585 | COCCCNC(=O)C1CCCN(c2cc(=O)n(C)c(=O)n2C)C1 (centres undefined)
34 | 1240 | COc1ccc(C2Cn3nnc(-c4nc(-c5ccc(Cl)cc5)no4)c3CO2)cc1 (centres undefined)
35 | 596 | CSc1ccccc1CN1CCC(CNC(=O)C2(c3ccc(F)cc3)CC2)CC1
36 | 805 | CCCCN1C(=O)CN(S(=O)(=O)c2ccccc2)CC1(C)C(=O)NCc1ccc(C)cc1 (centres undefined)
37 | 797 | Cc1ccc(C(=O)NC2CCN(c3ccccc3)C2=O)c(C)c1 (centres undefined)
38 | 839 | O=C(NCc1ccc(F)c(Cl)c1)C1CCN(c2ccc(SCc3ccccc3)nn2)CC1
39 | 785 | COc1ccc(S(=O)(=O)N2C[C@@H](F)C[C@H]2C(=O)N2CCCCC2)cc1Cl
40 | 659 | CCn1c(=O)c(NCc2ccccc2Cl)nc2ccncc21
41 | 1170 | Cc1cc(C(=O)Nc2ccc3c(c2)OCO3)c2c(C)nn(-c3cccc(F)c3)c2n1
42 | 666 | CN(C)c1cc(-n2cccn2)ncn1
43 | 801 | CCN(C(=O)c1cc2c(=O)n(C)c(=O)n(C)c2s1)c1ccc(OC)cc1
44 | 937 | O=C(N[C@H]1C[C@@H]2C[C@H]1CN2C(=O)Nc1ccc2c(c1)OCCO2)c1ccccc1

Row | RP-LC retention time [s] | Structure (SMILES)
45 | 617 | CC(=O)N1c2ccc(S(=O)(=O)N3CCCC3C(=O)Nc3cc(C)ccn3)cc2CC1C (centres undefined)
46 | 1010 | CCOc1ccc(OCC)c(NC(=O)CSc2nnc3c4cc(-c5ccc(OC)cc5)nn4ccn23)c1
47 | 621 | CCOC(=O)C1CCCN(C(=O)CCC2NC(=O)c3ccccc3NC2=O)C1 (centres undefined)
48 | 752 | COc1ccc(-c2noc(C3CCCN3C(=O)Nc3ccc4c(c3)OCCO4)n2)cc1 (centres undefined)
49 | 647 | COc1cc(C(=O)N2CCC(CC(=O)NC3CC3)CC2)cc(OC)c1OC
50 | 730 | CCOc1ccccc1NC(=O)CSc1nnc(-c2cccnc2)o1
51 | 700 | COc1ccc(N2COc3ccc4c(c3C2)O/C(=C\c2ccco2)C4=O)cc1
52 | 618 | O=C(CCc1ccc2nc(-c3ccccc3)[nH]c2c1)NC1CCCC1
53 | 710 | COc1cc(CCC(=O)N2CCNc3ccccc3C2)cc(OC)c1OC
54 | 657 | CN(C)C(=O)c1cn(C2CN(S(=O)(=O)c3cccc4nsnc34)C2)nn1
55 | 686 | Cc1nc(-c2csc(S(=O)(=O)N3CCCC(C(=O)NCc4ccc(N(C)C)cc4)C3)c2)no1 (centres undefined)
56 | 543 | COc1ccc(Cl)cc1C(=O)N1CCC(c2nc3ccncc3n2C(C)C)C1 (centres undefined)
57 | 1180 | COc1ccc(CNC(=O)N2c3ccccc3CC2c2nc(C3CC3)no2)cc1 (centres undefined)
58 | 725 | CCOc1ccc(C(=O)NC2CCN(c3cc(-c4ccc(OC)cc4)[nH]n3)C2)cc1 (centres undefined)
59 | 1060 | COc1ccc(NC(=O)C2CCCN(c3nccnc3Sc3ccccc3)C2)c(OC)c1 (centres undefined)
60 | 850 | CC(C)n1nc(CNC(=O)Cc2ccsc2)c2ccccc21
61 | 638 | COc1ccc(OC)c(NC(=O)c2cc(S(=O)(=O)N3CCCC(C)C3)cn2C)c1 (centres undefined)
62 | 629 | COCCN1CCC2(CC1)CN(Cc1cccc(F)c1)Cc1ccccc1O2
63 | 628 | CN(C)C(=O)c1cc2c(s1)CCC(C(=O)NCc1ccccc1)C2 (centres undefined)
64 | 664 | COc1ccc(S(=O)(=O)Nc2cc(-c3cn4cccc(C)c4n3)ccc2C)cc1
65 | 747 | Cc1ccc(C)c(NC(=O)Nc2ccc3nncn3c2)c1
66 | 602 | CC(C)CN1CCN(C(=O)c2ccc(-c3cccs3)nc2)CC1

Row | RP-LC retention time [s] | Structure (SMILES)
67 | 1060 | COc1ccc(S(=O)(=O)N2CCC(CCOc3ccccc3F)C2)cc1 (centres undefined)
68 | 696 | CN(CC1(C)CCOCC1)C(=O)c1ccc2cc[nH]c2c1
69 | 640 | Cc1ccn2cc(C(=O)NCCC(C)C)nc2c1
70 | 575 | Cc1ccc(NC(=O)C(=O)NCC2(O)CCOCC2)cc1N1CCCC1=O
71 | 810 | COc1ccc(OC)c(NC(=O)C2CCCN(c3nnc4ccc(Cl)cn34)C2)c1 (centres undefined)
72 | 760 | CC(C)N1CCN(Cc2ccc(C(=O)NCCC3=CCCCC3)cc2)C(=O)C1=O
73 | 1050 | CCCSCCCNC(=O)Cn1nc(-n2cccc2)c2c(C)cc(C)nc21
74 | 673 | CCN(CC)CCCNC(=O)C1CCCN(c2ncc(-c3ccccc3)cn2)C1 (centres undefined)
75 | 820 | O=c1ccc(N2CCCN(S(=O)(=O)c3ccccc3F)CC2)nn1-c1ccccc1
76 | 1130 | COc1nc2c(c(C)nn2-c2ccccc2)c(C)c1CCC(=O)NCCc1c[nH]c2ccccc12
77 | 548 | c1cc(OCc2ccc(CC3CCN(C4CCOCC4)CC3)cc2)ccn1
78 | 875 | O=C(Cn1nc(C(=O)N2CCCC2)c2ccccc21)Nc1cccc(Cl)c1
79 | 888 | CN(CC(=O)O)c1nc2c(Cl)cc(Cl)cc2s1
80 | 684 | Cc1ccc(-c2nc3cnccn3c2NCCC(=O)NCc2ccco2)cc1
81 | 647 | CC(=O)c1cccc(NC(=O)N2CCCN(c3nc4ccccc4n4cccc34)CC2)c1
82 | 984 | COc1ccc(C(=O)N2C[C@H](c3nc(-c4ccccc4)no3)[C@@H](C)C2)cc1
83 | 914 | COc1cccc(-c2cn3ccn(-c4ccc5c(c4)CCC5)c(=O)c3n2)c1
84 | 690 | COc1ccc(NC(=O)c2ccc3[nH]c4c(c3c2)CN(C(C)=O)CC4)c(OC)c1
85 | 878 | Cc1ccc(CNC(=O)C2(C)CCCN(C(=O)NCc3ccccc3)C2)cc1 (centres undefined)
86 | 959 | NS(=O)(=O)c1ccc(-n2nc(C(F)(F)F)cc2-c2ccc(Cl)cc2)cc1
87 | 628 | CC1CCCCN1CCNC(=O)c1nc2nc(-c3ccco3)cc(C(F)(F)F)n2n1 (centres undefined)
88 | 715 | Cc1cc2c(cc1NC(=O)CCc1ccccc1)n(C)c(=O)n2C

Row | Structure (SMILES) | RP-LC retention time [s]
89 | COc1ccc2c(c1)C1(CCN(S(=O)(=O)c3ccc(F)c(C)c3)C1)C(=O)N2C (centres undefined) | 973
